Converted amounts (≈) assume the structure as drawn.
Key:
[1] = tested on: HIV-1 IIIB; format: cell-based; conditions: lab-adapted HIV-1 IIIB
Procedure: Both involved the culture of the virus with the peptide or its scrambled form for 1 hr at 37° C., 5% CO2 and then subsequent addition of target cells for 7 days. Inhibition was assessed using an enzyme-linked immunosorbent assay (ELISA) of viral core protein p24 antigen.

[2] = tested on: JRCSF; assay: Primary isolate infectivity in peripheral blood lymphocytes, p24 ELISA: JRCSF; format: cell-based, HIV-1
Procedure: (§1) Infectivity studies were performed using the inhibition of HIV-1 infection of the gp41 derived peptides using receptor bearing cells for both HIV-1 T cell line adapted virus (HIV-1 IIIB) in MT2 cells and primary isolate virus (SF162, JRCSF and 89.6) in peripheral blood lymphocytes. Both involved the culture of the virus with the peptide or its scrambled form for 1 hr at 37° C., 5% CO2 and then subsequent addition of target cells for 7 days. Inhibition was assessed using an enzyme-linked immunosorbent assay (ELISA) of viral core protein p24 antigen.

[3] = tested on: 89.6; assay: Primary isolate infectivity in peripheral blood lymphocytes, p24 ELISA: 89.6; format: cell-based, HIV-1; conditions: primary isolate 89.6
Procedure: as §1

[4] = tested on: SF162; assay: Primary isolate infectivity in peripheral blood lymphocytes, p24 ELISA: SF162; format: cell-based, HIV-1
Procedure: as §1

[5] = tested on: BR94; assay: Primary isolate infectivity in PBMCs: patient isolate BR94 (clade B); format: cell-based, HIV-1
[6] = tested on: HIV-1; conditions: qualitative comparison
Procedure: Peptides were tested in vitro for inhibition of early steps in cell-free HIV-1 infection and direct cell-to-cell spread of virus using T-cell line-adapted and primary isolates and recombinant HIV-1 viruses pseudotyped for env using CCR5, CXCR4 or both coreceptors.
Selected de novo designed peptides according to the invention (S291, N36E, W37Q and W371) and the new analogues of T20, T21 and DP219 were evaluated for inhibition of both cell-free HIV-1 infection and of direct cell-to-cell spread using a range of T-cell line-adapted and primary isolates and recombinant HIV-1 pseudotyped for env derived from patient isolates of different clades.

SMILES: CC[C@H](C)[C@H](NC(=O)[C@H](CC(C)C)NC(=O)[C@H](CO)NC(=O)[C@H](Cc1ccc(O)cc1)NC(=O)[C@@H](NC(=O)[C@H](CC(C)C)NC(=O)[C@H](CO)NC(=O)[C@@H](NC(=O)[C@H](Cc1ccc(O)cc1)NC(=O)[C@H](CC(N)=O)NC(=O)[C@H](CC(=O)O)NC(=O)[C@@H](NC(=O)[C@H](CCC(=O)O)NC(=O)[C@H](CCCNC(=N)N)NC(=O)[C@H](CCC(=O)O)NC(=O)[C@H](Cc1c[nH]c2ccccc12)NC(=O)[C@H](CCC(=O)O)NC(=O)[C@H](CCSC)NC(=O)[C@H](Cc1c[nH]c2ccccc12)NC(=O)[C@@H](NC(=O)[C@H](CCSC)NC(=O)[C@H](CC(N)=O)NC(=O)[C@H](CC(N)=O)NC(=O)[C@H](Cc1c[nH]c2ccccc12)NC(=O)[C@@H](NC(=O)[C@H](CCC(N)=O)NC(=O)[C@H](CCC(=O)O)NC(=O)[C@H](CC(C)C)NC(=O)[C@@H](N)CO)[C@@H](C)CC)[C@@H](C)O)[C@@H](C)CC)[C@@H](C)O)[C@@H](C)CC)C(=O)O [Peptide S29I]
- ID50% HIV-1IIIB infectivity [1]: 9.37 µg/mL (≈ 2.55 µM)
- ID90 HIV-1IIIB infectivity [1]: 25 µg/mL (≈ 6.8 µM)
- MIC HIV-1IIIB infectivity [1]: 6.3 µg/mL (≈ 1.71 µM)
- Primary isolate (ID50) JRCSF [2]: >50 µg/mL
- Primary isolate (ID50) 89.6 [3]: 50 µg/mL
- Primary isolate (ID50) SF162 [4]: 0.06 µg/mL
- Primary isolate (ID50) BR94 [5]: 0 µg/mL
- activity compared with the new analogues of T-20, T-21 and DP219 [6]: broadly similar levels of activity
